# Experiments:
# [1] = biological target: T1, human mGluR5d (Homo sapiens, UniProt P41594); test: FLIPR assay, mobilization of intracellular calcium in cells expressing human mGluR5d; format: cell-based; details: antagonism of agonist response, read-out: FLIPR hmGluR5d
# T1 construct: expressed in transfected cells
# Description: The properties of the compounds of the invention can be analyzed using standard assays for pharmacological activity. Examples of glutamate receptor assays are well known in the art as described in for example Aramori et al., Neuron 8:757 (1992), Tanabe et al., Neuron 8:169 (1992), Miller et al., J. Neuroscience 15: 6103 (1995), Balazs, et al., J. Neurochemistry 69:151 (1997). The methodology described in these publications is incorporated herein by reference. Conveniently, the compounds of the invention can be studied by means of an assay (FLIPR) that measures the mobilization of intracellular calcium, [Ca^2+]i in cells expressing mGluR5 or another assay (IP3) that measures inositol phosphate turnover.
# Cells expressing human mGluR5d as described in WO97/05252 cultured in a mixture of high glucose DMEM with Glutamax (31966-021)(500 mL), 10% dialyzed fetal bovine serum (Hyclone #SH30079.03)(56 mL), 200 μg/mL Hygromycin B (Invitrogen 45-0430, 50 mg/mL)(2.2 mL), 200 μg/mL Zeocin (Invitrogen #R250-01; 100 mg/mL)(1.1 mL) are seeded at a density of 100,000 cells per well on collagen coated clear bottom 96-well plates with black sides and cells were allowed to adhere over night before experiments. All assays are done in a buffer containing 146 mM NaCl, 5 mM KCl, 1 mM MgCl2, 1 mM CaCl2, 20 mM HEPES, 1 mg/mL glucose and 1 mg/mL BSA Fraction IV (pH 7.4). Cell cultures in the 96-well plates are loaded for 60 minutes in the above mentioned buffer containing 6 μM of the acetoxymethyl ester form of the fluorescent calcium indicator fluo-3 (Molecular Probes, Eugene, Oreg.) in 0.025% pluronic acid (a proprietary, non-ionic surfactant polyol—CAS Number 9003-11-6). Following the loading period the fluo-3 buffer is removed and replaced with fresh assay buffer. FLIPR experiments are done using a laser setting of 0.700 W and a 0.4 second CCD camera shutter speed with excitation and emission wavelengths of 488 nm and 562 nm, respectively. Each experiment is initiated with 160 μl of buffer present in each well of the cell plate. A 40 μl addition from the antagonist plate was followed by a 50 μL addition from the agonist plate. A 30 minutes, in dark at 25° C., interval separates the antagonist and agonist additions. The fluorescence signal is sampled 50 times at 1-second intervals followed by 3 samples at 5-second intervals immediately after each of the two additions. Responses are measured as the difference between the peak heights of the response to agonist) less the background fluorescence within the sample period. IC50 determinations are made using a linear least squares fitting program.
# [2] = Determination of brain to plasma ratio in rat; format: in vivo; details: brain and plasma, female Sprague Dawley rats, drug in brain over drug in plasma, read-out: Brain/Plasma Ratio of compound in Rat
# Experimental: Brain to plasma ratios are estimated in female Sprague Dawley rats. The compound is dissolved in water or another appropriate vehicle. For determination of brain to plasma ratio the compound is administrated as a subcutaneous, or an intravenous bolus injection, or an intravenous infusion, or an oral administration. At a predetermined time point after the administration a blood sample is taken with cardiac puncture. The rat is terminated by cutting the heart open, and the brain is immediately retained. The blood samples are collected in heparinized tubes and centrifuged within 30 minutes, in order to separate the plasma from the blood cells. The plasma is transferred to 96-well plates and stored at −20° C. until analysis. The brains are divided in half, and each half is placed in a pre-tarred tube and stored at −20° C. until analysis. Prior to the analysis, the brain samples are thawed and 3 mL/g brain tissue of distilled water is added to the tubes. The brain samples are sonicated in an ice bath until the samples are homogenized. Both brain and plasma samples are precipitated with acetonitrile. After centrifugation, the supernatant is diluted with 0.2% formic acid. Analysis is performed on a short reversed-phase HPLC column with rapid gradient elution and MSMS detection using a triple quadrupole instrument with electrospray ionization and Selected Reaction Monitoring (SRM) acquisition. Liquid-liquid extraction may be used as an alternative sample clean-up. The samples are extracted, by shaking, to an organic solvent after addition of a suitable buffer. An aliquot of the organic layer is transferred to a new vial and evaporated to dryness under a stream of nitrogen. After reconstitution of the residuals the samples are ready for injection onto the HPLC column.
# T1 sequence (P41594 21-942 isoform P41594-3 limits assumed): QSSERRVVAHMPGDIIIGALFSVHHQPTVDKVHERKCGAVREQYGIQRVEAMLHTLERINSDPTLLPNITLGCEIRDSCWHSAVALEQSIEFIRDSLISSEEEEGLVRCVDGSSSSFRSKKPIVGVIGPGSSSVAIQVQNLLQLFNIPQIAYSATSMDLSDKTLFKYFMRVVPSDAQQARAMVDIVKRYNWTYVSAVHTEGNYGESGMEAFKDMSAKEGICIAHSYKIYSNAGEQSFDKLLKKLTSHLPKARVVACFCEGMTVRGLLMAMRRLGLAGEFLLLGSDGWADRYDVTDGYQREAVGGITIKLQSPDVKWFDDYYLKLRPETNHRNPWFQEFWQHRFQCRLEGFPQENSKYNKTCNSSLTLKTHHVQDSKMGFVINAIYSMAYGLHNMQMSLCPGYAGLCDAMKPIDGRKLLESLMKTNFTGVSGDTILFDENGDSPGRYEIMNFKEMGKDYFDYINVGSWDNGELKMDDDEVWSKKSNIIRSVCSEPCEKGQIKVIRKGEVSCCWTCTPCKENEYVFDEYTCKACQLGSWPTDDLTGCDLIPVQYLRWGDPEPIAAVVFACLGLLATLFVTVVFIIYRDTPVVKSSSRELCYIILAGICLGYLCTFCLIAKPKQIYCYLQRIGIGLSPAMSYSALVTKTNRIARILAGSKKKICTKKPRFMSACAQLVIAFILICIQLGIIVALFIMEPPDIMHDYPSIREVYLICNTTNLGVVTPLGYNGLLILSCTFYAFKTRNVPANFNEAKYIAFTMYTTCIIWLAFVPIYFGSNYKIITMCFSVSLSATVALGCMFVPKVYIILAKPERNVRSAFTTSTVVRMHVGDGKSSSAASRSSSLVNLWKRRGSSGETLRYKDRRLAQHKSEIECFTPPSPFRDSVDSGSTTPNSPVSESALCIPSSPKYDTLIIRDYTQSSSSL
IC50 [1] [nM],Kp [2],Structure (SMILES)
34,0.06,"Cn1c(-c2cn[nH]c(=O)c2)nnc1N1[C@@H](c2cc(-c3csc(Cl)c3)on2)C[C@H]2C[C@H]21 [Example 10.1, 5-(5-{(1R,3R,5R)-3-[5-(5-Chloro-3-thienyl)isoxazol-3-yl]-2-azabicyclo[3.1.0]hex-2-yl}-4-methyl-4H-1,2,4-triazol-3-yl)pyridazin-3(2H)-one]"
35,< 0.01,"Cn1c(-c2cc[nH]c(=O)c2)nnc1N1[C@@H](c2cc(-c3csc(Cl)c3)on2)C[C@H]2C[C@H]21 [Example 10.2, 4-(5-{(1R,3R,5R)-3-[5-(5-Chloro-3-thienyl)isoxazol-3-yl]-2-azabicyclo[3.1.0]hex-2-yl}-4-methyl-4H-1,2,4-triazol-3-yl)pyridin-2(1H)-one]"
61,0.16,"Cn1c(-c2cnn(C)c(=O)c2)nnc1N1CCC[C@@H]1c1cc(-c2csc(Cl)c2)on1 [Example 10.3, 5-(5-{(2R)-2-[5-(5-Chloro-3-thienyl)isoxazol-3-yl]pyrrolidin-1-yl}-4-methyl-4H-1,2,4-triazol-3-yl)-2-methylpyridazin-3(2H)-one]"
39,< 0.01,"Cn1c(-c2cn[nH]c(=O)c2)nnc1N1CCC[C@@H]1c1cc(-c2csc(Cl)c2)on1 [Example 10.4, 5-(5-{(2R)-2-[5-(5-Chloro-3-thienyl)isoxazol-3-yl]pyrrolidin-1-yl}-4-methyl-4H-1,2,4-triazol-3-yl)pyridazin-3(2H)-one]"
44,0.03,"Cn1c(-c2ccn(C)c(=O)c2)nnc1N1CCC[C@@H]1c1cc(-c2csc(Cl)c2)on1 [Example 10.5, 4-(5-{(2R)-2-[5-(5-Chloro-3-thienyl)isoxazol-3-yl]pyrrolidin-1-yl}-4-methyl-4H-1,2,4-triazol-3-yl)-1-methylpyridin-2(1H)-one]"
35,< 0.01,"Cn1c(-c2cc[nH]c(=O)c2)nnc1N1CCC[C@@H]1c1cc(-c2csc(Cl)c2)on1 [Example 10.6, 4-(5-{(2R)-2-[5-(5-Chloro-3-thienyl)isoxazol-3-yl]pyrrolidin-1-yl}-4-methyl-4H-1,2,4-triazol-3-yl)pyridin-2(1H)-one]"
